Pest or weed control data for four compounds are collected here from patent publication US20110086759A1, “CHEMICAL COMPOUNDS” (SYNGENTA CROP PROTECTION, INC., priority 2007, published 2011).

Each structure is given as a SMILES string.

What all share (assay type): in vivo
Experiment [1] deals with Alopecurus myosuroides (ALOMY). The experiment can be described thus: Pre-emergence biological efficacy, glasshouse pot test. The conditions noted are these: 312 h, pre-emergence, rate 1,000 g/ha, evaluated after 13 days (100=total damage to plant; 0=no damage), read-out: Percentage damage caused to weed species, ALOMY. The method in brief: (§1)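 Damage rated 0–100 (100 = total kill) 13 days post-spray. Pots of standard soil were sown and sprayed after one day with test compound at 1000 or 250 g/ha in acetone/water (50:50) plus 0.5% Tween 20.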

Experiment [2] has as its system Amaranthus retoflexus (AMARE). The description is as above. The following applies: Amaranthus retroflexus, 312 h; pre-emergence, rate 1,000 g/ha, evaluated after 13 days (100=total damage to plant; 0=no damage); read-out: Percentage damage caused to weed species, AMARE. The method in brief:
as §1

Experiment [3] has as its system Echinochloa crus-galli (ECHCG). The description is as above. The conditions noted are these: 312 h, pre-emergence, rate 1,000 g/ha, evaluated after 13 days (100=total damage to plant; 0=no damage), read-out: Percentage damage caused to weed species, ECHCG. Summed up:
as §1

Experiment [4] concerns Ipomea hederaceae (IPOHE). The description is as above. The conditions noted are these: Ipomoea hederacea, 312 h; pre-emergence, rate 1,000 g/ha, evaluated after 13 days (100=total damage to plant; 0=no damage); read-out: Percentage damage caused to weed species, IPOHE. The method in brief: as §1
Experiment [5] has as its system Setaria faberi (SETFA). The experiment is described as above. The conditions noted are these: 312 h, pre-emergence, rate 1,000 g/ha, evaluated after 13 days (100=total damage to plant; 0=no damage), read-out: Percentage damage caused to weed species, SETFA. Summed up:
as §1

Experiment [6] deals with Solanum nigrum (SOLNI). The description is as above. The following applies: 312 h, pre-emergence, rate 1,000 g/ha, evaluated after 13 days (100=total damage to plant; 0=no damage), read-out: Percentage damage caused to weed species, SOLNI. The method in brief: as §1
The subject of experiment [7] is Alopecurus myosuroides (ALOMY). The experiment can be described thus: Post-emergence biological efficacy, glasshouse pot test. The following applies: 312 h, Rate 1,000 g/ha, post-emergence spray, evaluated after 13 days (100=total damage to plant; 0=no damage to plant), read-out: Percentage damage caused to weed species, post-emergence, ALOMY. Summed up: (§2)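 Pot-grown weeds were sprayed 8 days after sowing with test compound in acetone/water (50:50) with 0.5% Tween 20 at 1000 or 250 g/ha. Glasshouse at 24/16° C day/night, 14 h light, 65% humidity. Damage scored 0-100 (100 = total damage) after 13 days.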

Experiment [8] relates to Amaranthus retoflexus (AMARE). The experiment is described as above. The conditions noted are these: Amaranthus retroflexus, 312 h; Rate 1,000 g/ha; post-emergence spray; evaluated after 13 days (100=total damage to plant; 0=no damage to plant); read-out: Percentage damage caused to weed species, post-emergence, AMARE. The method in brief: as §2
The subject of experiment [9] is Echinochloa crus-galli (ECHCG). The experiment is described as above. The following applies: 312 h, Rate 1,000 g/ha, post-emergence spray, evaluated after 13 days (100=total damage to plant; 0=no damage to plant), read-out: Percentage damage caused to weed species, post-emergence, ECHCG. Summed up: as §2
Experiment [10] has as its system Ipomea hederaceae (IPOHE). The description is as above. The conditions noted are these: Ipomoea hederacea, 312 h; Rate 1,000 g/ha; post-emergence spray; evaluated after 13 days (100=total damage to plant; 0=no damage to plant); read-out: Percentage damage caused to weed species, post-emergence, IPOHE. Summed up:
as §2

Experiment [11] concerns Setaria faberi (SETFA). Described as above. The conditions noted are these: 312 h, Rate 1,000 g/ha, post-emergence spray, evaluated after 13 days (100=total damage to plant; 0=no damage to plant), read-out: Percentage damage caused to weed species, post-emergence, SETFA. The method in brief:
as §2

For experiment [12], the system named is Solanum nigrum (SOLNI). The description is as above. The following applies: 312 h, Rate 1,000 g/ha, post-emergence spray, evaluated after 13 days (100=total damage to plant; 0=no damage to plant), read-out: Percentage damage caused to weed species, post-emergence, SOLNI. Summed up: as §2

Consider `COC(=O)c1nc(-c2ccc(OC)cc2)nc(NCc2ccco2)c1Cl` [Compound 250-48, 5-Chloro-4-(furan-2-ylmethylamino)-2-(4-methoxyphenyl)-6-methoxycarbonyl-pyrimidine], for which the pest or weed control at 1000 g/ha was 0% in experiment [1]; 30% in [2]; 0% in [3]; 0% in experiment [4]; 20% in [5]; 0% in experiment [6]. The pest or weed control at 1000 g/ha in experiment [7] was determined as 0%; in experiment [8], 90%; in [9] it was 30%; in experiment [10], 30%; in experiment [11], 50%; in [12], 40%.
With `COC(=O)c1nc(-c2ccc(OC)cc2C)nc(NCc2ccco2)c1Cl` [Compound 251-48, 5-Chloro-4-(furan-2-yl-methylamino)-2-(4-methoxy-2-methyl-pheny)-6-methoxy-carbonylpyrimidine], the pest or weed control at 1000 g/ha in [1], in experiment [2], in experiment [3], in experiment [4], in experiment [5] and in experiment [6] was 0% throughout. Besides, the pest or weed control at 1000 g/ha in experiment [7] was 0%; in experiment [8] it was 0%; in experiment [9], 0%; in [10], 0%; in experiment [11], 0%; in [12], 20%.
Regarding `COC(=O)c1nc(-c2ccc(OC)cc2OC)nc(NCc2ccco2)c1Cl` [Compound 252-48, 5-Chloro-2-(2,4-dimethoxyphenyl)-4-(furan-2-yl-methyl-amino)-6-methoxy-carbonylpyrimidine], the pest or weed control at 1000 g/ha in experiment [1] stood at 0%; in experiment [2] it was 0%; in [3], 0%; in experiment [4], 0%; in [5] it was 20%; in experiment [6], 0%. The pest or weed control at 1000 g/ha in [7] is 0%; in [8], 30%; in experiment [9], 0%; in experiment [10], 30%; in [11], 0%; in [12], 20%.
As to `COC(=O)c1nc(-c2ccc(OC)c(Cl)c2)nc(NCc2ccco2)c1Cl` [Compound 254-48, 5-Chloro-2-(3-chloro-4-methoxyphenyl)-4-(furan-2-yl-methyl-amino)-6-methoxy-carbonylpyrimidine], the pest or weed control at 1000 g/ha in experiment [1], in [2], in experiment [3], in experiment [4], in [5] and in [6] was 0% in each case. Besides, the pest or weed control at 1000 g/ha amounted to 0% in experiment [7]; 20% in experiment [8]; 0% in experiment [9]; 10% in experiment [10]; 0% in [11]; 30% in [12].
